Data from patent US20240148821A1, “PHARMACEUTICAL USE OF CYCLIC PEPTIDE COMPOUND” (CHUGAI SEIYAKU KABUSHIKI KAISHA, priority 2021, published 2024).
Numbered stars: 1 amine (or outer) side, 2 acyl side, 3 side chain; on linkers, the order of the positions; unused ones are H or OH. Bridge positions count the residues as written; N and C are the ends. Square brackets hold non-standard residues; d marks the D form. Peptide text beside a SMILES is read from it. * marks the point of attachment. hPhe(3,5-F2-4-CF3) = N[C@@H](CCc1cc(F)c(C(F)(F)F)c(F)c1)C(=O)O; NMeAbu(3,3-F2-piperidino) = CN[C@@H](CCN1CCCC(F)(F)C1)C(=O)O; hPhe(3-Cl-4-CF3) = N[C@@H](CCc1ccc(C(F)(F)F)c(Cl)c1)C(=O)O; hPhe(3-F,4-CF3) = N[C@@H](CCc1ccc(C(F)(F)F)c(F)c1)C(=O)O; NMePhe(4-CF3) = CN[C@@H](Cc1ccc(C(F)(F)F)cc1)C(=O)O; NMeAbu(4,4,4-F3) = CN[C@@H](CC(F)(F)F)C(=O)O; NMePhe(4-Cl) = CN[C@@H](Cc1ccc(Cl)cc1)C(=O)O; NMePhe(4-Me) = CN[C@@H](Cc1ccc(C)cc1)C(=O)O; X40 = O=C([C@H](Cc1cc(I)ccc1F)N[*:1])[*:2]; NMedβ3hAla = C[C@H](CC(=O)[*:2])N(C)[*:1]; NMeGly(cPent) = CN[C@H](C(=O)O)C1CCCC1; Phe(3-I) = N[C@@H](Cc1cccc(I)c1)C(=O)O; Pro(4,4-F2) = O=C(O)[C@@H]1CC(F)(F)CN1; NMeAla(cPr) = CN[C@@H](CC1CC1)C(=O)O; NMeCha = CN[C@@H](CC1CCCCC1)C(=O)O; NMehLeu = CN[C@@H](CCC(C)C)C(=O)O; NMeChg = CN[C@H](C(=O)O)C1CCCCC1; NMeF = CN[C@@H](Cc1ccccc1)C(=O)O; NMeI = CC[C@H](C)[C@H](NC)C(=O)O; NMeD = CN[C@@H](CC(=O)O)C(=O)O; NMeL = CN[C@@H](CC(C)C)C(=O)O; Chg = N[C@H](C(=O)O)C1CCCCC1; NEtAla = CCN[C@@H](C)C(=O)O; NMeNva = CCC[C@H](NC)C(=O)O; NMeV = CN[C@H](C(=O)O)C(C)C; d(β3hA) = C[C@@H](N)CC(=O)O; NMeS = CN[C@@H](CO)C(=O)O; Morpholide = C1CN(*)CCO1; NMeA = CN[C@@H](C)C(=O)O; NMeAib = CNC(C)(C)C(=O)O; Nle = CCCC[C@H](N)C(=O)O; Piperidide = C1CCN(*)CC1; Pyrrolidide = C1CCN(*)C1; dNMeA = CN[C@H](C)C(=O)O; Ac5c = NC1(C(=O)O)CCCC1; Aze = O=C(O)[C@@H]1CCN1; Sar = CNCC(=O)O; Propyl = CCC*

tested on: Human pancreatic cancer cell line AsPC-1 (G12D mutation Kras); assay: AsPC-1 cell growth inhibition (AsPC-1 CGI); assay type: cell-based; settings: read-out: AsPC-1 cell growth inhibition, 50% growth inhibitory concentration (IC50 value); 96 hours, CellTiter-Glo, values classified in ranges
Experimental: Test compounds were serially dilated with dimethyl sulfoxide, and 200 nL was then dispensed to a U-bottom 96-well plate using Labcyte Echo. […] The cell suspension was dispensed to a. plate containing a test compound at 100 μL per well and incubated at 37° C. in a 5% carbon dioxide gas incubator. 96 hours later, 80 μL of CellTiter-Glo (Promega) was added to each well and fluorescence was measured.

SMILES	IC50
CC[C@H](C)[C@@H]1NC(=O)[C@H](CC(C)C)N(C)C(=O)C[C@@H](C)NC(=O)[C@H](CC(C)C)N(C)C(=O)C2(CCCC2)NC(=O)[C@@H]2CCN2C(=O)[C@H](CCc2ccc(C(F)(F)F)c(F)c2)NC(=O)CN(C)C(=O)[C@H](CC2CCCCC2)N(C)C(=O)CN(C)C(=O)CN(C)C1=O [Compound 1545] (cyclo([Ac5c][NMeL][d(β3hA)][NMeL]I[Sar][Sar][NMeCha][Sar][hPhe(3-F,4-CF3)][Aze]))	> 0.5 µM
CC[C@H](C)[C@@H]1NC(=O)[C@H](C)N(C)C(=O)C[C@@H](C(=O)N2CCCCC2)N(C)C(=O)[C@H](C(C)C)N(C)C(=O)C2(CCCC2)NC(=O)[C@@H]2CCCN2C(=O)[C@H](CCc2ccc(C(F)(F)F)c(Cl)c2)NC(=O)[C@@H](C)N(C)C(=O)[C@H](Cc2ccccc2)N(C)C(=O)CN(C)C(=O)CN(C)C1=O [Compound 1844] ([NMeA]I[Sar][Sar][NMeF][dNMeA][hPhe(3-Cl-4-CF3)]P[Ac5c][NMeV][NMeD]-Piperidide; lactam N-11)	> 0.5 µM
CCCC[C@@H]1NC(=O)[C@H](Cc2cccc(I)c2)NC(=O)CN(C)C(=O)[C@H](Cc2ccc(Cl)cc2)N(C)C(=O)CN(C)C(=O)CN(C)C(=O)[C@H]([C@@H](C)CC)NC(=O)[C@H](CC(C)C)N(C)C(=O)C[C@@H](C(=O)N2CCCCC2)N(C)C(=O)[C@H](CC(C)C)NC(=O)[C@H](Cc2ccc(C(F)(F)F)cc2)N(C)C1=O [Compound 498] ([NMeL]I[Sar][Sar][NMePhe(4-Cl)][Sar][Phe(3-I)][Nle][NMePhe(4-CF3)]L[NMeD]-Piperidide; lactam N-11)	> 0.5 µM
CC[C@H](C)[C@@H]1NC(=O)[C@H](C)N(CC)C(=O)C[C@@H](C)NC(=O)[C@H](C(C)C)N(C)C(=O)C2(CCCC2)NC(=O)[C@@H]2CCCN2C(=O)[C@H](CCc2ccc(C(F)(F)F)c(Cl)c2)NC(=O)CN(C)C(=O)[C@H](CC2CCCCC2)N(C)C(=O)CN(C)C(=O)CN(C)C1=O [Compound 196] (cyclo([Ac5c][NMeV][d(β3hA)][NEtAla]I[Sar][Sar][NMeCha][Sar][hPhe(3-Cl-4-CF3)]P))	> 0.5 µM
CC[C@H](C)[C@@H]1NC(=O)[C@H](CCC(C)C)N(C)C(=O)C[C@@H](C(=O)N2CCOCC2)N(C)C(=O)[C@H](C2CCCC2)N(C)C(=O)C2(CCCC2)NC(=O)[C@@H]2CCCN2C(=O)[C@H](CCc2ccc(C(F)(F)F)c(Cl)c2)NC(=O)CN(C)C(=O)[C@H](C2CCCC2)N(C)C(=O)[C@@H]2CCN2C(=O)[C@H](C)N(C)C1=O [Compound 1237] ([NMehLeu]I[NMeA][Aze][NMeGly(cPent)][Sar][hPhe(3-Cl-4-CF3)]P[Ac5c][NMeGly(cPent)][NMeD]-Morpholide; lactam N-11)	≤ 0.02 µM
CCCC[C@@H]1NC(=O)[C@H](Cc2cc(I)ccc2F)NC(=O)CN(C)C(=O)[C@H](Cc2ccc(Cl)cc2)N(C)C(=O)CN(C)C(=O)CN(C)C(=O)[C@H]([C@@H](C)CC)NC(=O)[C@H](CC(C)C)N(C)C(=O)C[C@@H](C(=O)N2CCCCC2)N(C)C(=O)[C@H](CC(C)C)NC(=O)C(C)(C)N(C)C1=O [Compound 1286] ([NMeL]I[Sar][Sar][NMePhe(4-Cl)][Sar][X40][Nle][NMeAib]L[NMeD]-Piperidide; lactam N-11)	> 0.5 µM
CC[C@H](C)[C@@H]1NC(=O)[C@H](C2CCCC2)N(C)C(=O)C[C@@H](C)NC(=O)[C@H](C(C)C)N(C)C(=O)C2(CCCC2)NC(=O)[C@@H]2CCCN2C(=O)[C@H](CCc2ccc(C(F)(F)F)c(Cl)c2)NC(=O)CN(C)C(=O)[C@H](CC2CCCCC2)N(C)C(=O)[C@@H]2CCN2C(=O)[C@H](C)N(C)C1=O [Compound 570] (cyclo([Ac5c][NMeV][d(β3hA)][NMeGly(cPent)]I[NMeA][Aze][NMeCha][Sar][hPhe(3-Cl-4-CF3)]P))	> 0.5 µM
CC[C@H](C)[C@@H]1NC(=O)[C@H](CC(C)C)N(C)C(=O)C[C@@H](C(=O)N(C)C)N(C)C(=O)[C@H](C2CCCC2)N(C)C(=O)[C@H](C(C)C)NC(=O)[C@H](CCN2CCCC(F)(F)C2)N(C)C(=O)[C@H](CCc2ccc(C(F)(F)F)c(Cl)c2)NC(=O)CN(C)C(=O)[C@H](CC2CCCCC2)N(C)C(=O)[C@@H]2CCN2C(=O)[C@H](C)N(C)C1=O [Compound 389] ([NMeL]I[NMeA][Aze][NMeCha][Sar][hPhe(3-Cl-4-CF3)][NMeAbu(3,3-F2-piperidino)]V[NMeGly(cPent)][NMeD]-NMe2; lactam N-11)	> 0.5 µM
CCC[C@H]1C(=O)N(C)CC(=O)N[C@@H](CCc2ccc(C(F)(F)F)c(Cl)c2)C(=O)N2CCC[C@H]2C(=O)NC2(CCCC2)C(=O)N(C)[C@@H](C(C)C)C(=O)N(C)[C@H](C(=O)N2CCCCC2)CC(=O)N(C)[C@@H](CC(C)C)C(=O)N[C@@H]([C@@H](C)CC)C(=O)N(C)[C@@H](C)C(=O)N2CC[C@H]2C(=O)N1C [Compound 1027] ([NMeL]I[NMeA][Aze][NMeNva][Sar][hPhe(3-Cl-4-CF3)]P[Ac5c][NMeV][NMeD]-Piperidide; lactam N-11)	> 0.5 µM
CC[C@H](C)[C@@H]1NC(=O)[C@H](CC(C)C)N(C)C(=O)C[C@@H](C(=O)N2CCCCC2)N(C)C(=O)[C@H](C(C)C)N(C)C(=O)C2(CCCC2)NC(=O)[C@@H]2CCCN2C(=O)[C@H](CCc2ccc(C(F)(F)F)c(Cl)c2)NC(=O)CN(C)C(=O)[C@H](CC2CC2)N(C)C(=O)CN(C)C(=O)CN(C)C1=O [Compound 325] ([NMeL]I[Sar][Sar][NMeAla(cPr)][Sar][hPhe(3-Cl-4-CF3)]P[Ac5c][NMeV][NMeD]-Piperidide; lactam N-11)	> 0.5 µM
CC[C@H](C)[C@@H]1NC(=O)[C@H](CC(C)C)N(C)C(=O)C[C@@H](C(=O)N2CCCCC2)N(C)C(=O)[C@H](CC(C)C)NC(=O)C(C)(C)N(C)C(=O)[C@H](Cc2ccccc2)NC(=O)[C@H](Cc2cccc(I)c2)NC(=O)CN(C)C(=O)[C@H](Cc2ccc(C)cc2)N(C)C(=O)[C@@H]2CCN2C(=O)[C@H](C)N(C)C1=O [Compound 1015] ([NMeL]I[NMeA][Aze][NMePhe(4-Me)][Sar][Phe(3-I)]F[NMeAib]L[NMeD]-Piperidide; lactam N-11)	> 0.5 µM
CC[C@H](C)[C@@H]1NC(=O)[C@H](CC(C)C)N(C)C(=O)C[C@@H](C(=O)N(C)C)N(C)C(=O)[C@H]([C@@H](C)CC)N(C)C(=O)C2(CCCC2)NC(=O)[C@@H]2CCCN2C(=O)[C@H](CCc2ccc(C(F)(F)F)c(Cl)c2)NC(=O)CN(C)C(=O)[C@H](CC2CCCCC2)N(C)C(=O)[C@@H]2CCN2C(=O)[C@H](C)N(C)C1=O [Compound 1858] ([NMeL]I[NMeA][Aze][NMeCha][Sar][hPhe(3-Cl-4-CF3)]P[Ac5c][NMeI][NMeD]-NMe2; lactam N-11)	≤ 0.02 µM
CC[C@H](C)[C@@H]1NC(=O)[C@H](CC(F)(F)F)N(C)C(=O)C[C@@H](C(=O)N2CCCC2)N(C)C(=O)[C@H](C2CCCCC2)N(C)C(=O)C2(CCCC2)NC(=O)[C@@H]2CC(F)(F)CN2C(=O)[C@H](CCc2cc(F)c(C(F)(F)F)c(F)c2)NC(=O)CN(C)C(=O)[C@H](Cc2ccc(C)cc2)N(C)C(=O)CN(C)C(=O)CN(C)C1=O [Compound 1317] ([NMeAbu(4,4,4-F3)]I[Sar][Sar][NMePhe(4-Me)][Sar][hPhe(3,5-F2-4-CF3)][Pro(4,4-F2)][Ac5c][NMeChg][NMeD]-Pyrrolidide; lactam N-11)	≤ 0.02 µM
CC[C@H](C)[C@@H]1NC(=O)[C@H](CC(C)C)N(C)C(=O)C[C@@H](C(=O)N2CCCCC2)NC(=O)[C@H](C2CCCCC2)N(C)C(=O)C2(CCCC2)NC(=O)[C@@H]2CCCN2C(=O)[C@H](CCc2ccc(C(F)(F)F)c(Cl)c2)NC(=O)CN(C)C(=O)[C@H](CC2CCCCC2)N(C)C(=O)CN(C)C(=O)CN(C)C1=O [Compound 1274] ([NMeL]I[Sar][Sar][NMeCha][Sar][hPhe(3-Cl-4-CF3)]P[Ac5c][NMeChg]D-Piperidide; lactam N-11)	> 0.5 µM
CC[C@H](C)[C@@H]1NC(=O)[C@H](CC(C)C)N(C)C(=O)C[C@@H](C)N(C)C(=O)[C@H](CC(C)C)NC(=O)C(C)(C)N(C)C(=O)[C@H](C2CCCCC2)NC(=O)[C@H](CCc2ccc(C(F)(F)F)c(F)c2)NC(=O)CN(C)C(=O)[C@H](Cc2ccc(Cl)cc2)N(C)C(=O)CN(C)C(=O)CN(C)C1=O [Compound 772] (cyclo([Chg][NMeAib]L[NMedβ3hAla][NMeL]I[Sar][Sar][NMePhe(4-Cl)][Sar][hPhe(3-F,4-CF3)]))	> 0.5 µM
CC[C@H](C)[C@@H]1NC(=O)[C@H](CC(C)C)N(C)C(=O)C[C@@H](C(=O)N2CCCCC2)N(C)C(=O)[C@H](CC(C)C)NC(=O)C(C)(C)N(C)C(=O)[C@H](Cc2ccc(OC)cc2)NC(=O)[C@H](Cc2cccc(I)c2)NC(=O)CN(C)C(=O)[C@H](Cc2ccc(C)cc2)N(C)C(=O)[C@@H]2CCN2C(=O)[C@H](C)N(C)C1=O [Compound 703] ([NMeL]I[NMeA][Aze][NMePhe(4-Me)][Sar][Phe(3-I)]Y(Me)[NMeAib]L[NMeD]-Piperidide; lactam N-11)	> 0.5 µM
CCCOC[C@H]1C(=O)N(C)CC(=O)N[C@@H](CCc2ccc(C(F)(F)F)c(Cl)c2)C(=O)N2CCC[C@H]2C(=O)NC2(CCCC2)C(=O)N(C)[C@@H](C2CCCC2)C(=O)N(C)[C@H](C(=O)N2CCOCC2)CC(=O)N(C)[C@@H](CC(C)C)C(=O)N[C@@H]([C@@H](C)CC)C(=O)N(C)[C@@H](C)C(=O)N2CC[C@H]2C(=O)N1C [Compound 974] ([NMeL]I[NMeA][Aze][NMeS](Propyl)[Sar][hPhe(3-Cl-4-CF3)]P[Ac5c][NMeGly(cPent)][NMeD]-Morpholide; lactam N-11)	≤ 0.02 µM
Cc1ccc(C[C@H]2C(=O)N(C)CC(=O)N[C@@H](CCc3ccc(C(F)(F)F)c(Cl)c3)C(=O)N3CCC[C@H]3C(=O)NC3(CCCC3)C(=O)N(C)[C@@H](C3CCCC3)C(=O)N[C@H](C)CC(=O)N(C)[C@@H](CC(C)C)C(=O)N[C@@H](C)C(=O)N(C)[C@@H](C)C(=O)N3CC[C@H]3C(=O)N2C)cc1 [Compound 1225] (cyclo(A[NMeA][Aze][NMePhe(4-Me)][Sar][hPhe(3-Cl-4-CF3)]P[Ac5c][NMeGly(cPent)][d(β3hA)][NMeL]))	> 0.5 µM
